Laboratory results: patent US20240246943A1, “MULTIFACETED APPROACH TO NOVEL INTERLEUKIN-6 INHIBITORS” (UNIVERSITY OF FLORIDA RESEARCH FOUNDATION, INCORPORATED, priority 2021, published 2024)
pIC50: −log10 of the molar value. Read-outs that look alike come from different tables or passages of the source. Marks after values point to notes of the source that are not given here.

Tests used:
induced p-STAT1 = experiment: Selectivity study, western blot, T47D cells, IFN stimulation; type: cell-based; conditions: T47D breast cancer cells, compound, then cytokine
Experimental: (§1) Cells were harvested and lysed in cold radioimmunoprecipitation assay (RIPA) lysis buffer containing proteasome inhibitor cocktail and phosphatase inhibitor cocktail. The protein concentrations were determined using the BCA Protein Assay kit. After adding the loading buffer and boiling at 95° C. for 10 minutes, equivalent amounts of proteins were loaded on and separated by SDS-PAGE, and then were transferred to PVDF membranes. Membranes were probed with primary antibodies (1:1000) against gp130 and GAPDH. Membranes were analyzed using Enhanced Chemiluminescence Plus reagents and either scanned with the Storm Scanner (Amersham Pharmacia Biotech, Inc., Piscataway, NJ) or imaged with ChemiDoc MP imaging system (Bio-Rad, Hercules, CA).
(§2) Inhibition of downstream STAT3 phosphorylation was performed. T47D breast cancer cells, which lack endogenous IL-6, were treated with LLM418-MCBu for 2 hours. Then, cytokine was administered for 30 minutes (IL-6, INF, LIF, or OSM). Western blot conducted afterwards to assess dose-dependent inhibition of IL-6 signaling (or lack thereof) (FIG. 5).

[1] = tested on: MDA-MB-231 Bone Metastatic breast cancer cells; experiment: MTT cell viability assay, MDA-MB-231 Bone Metastatic; type: cell-based; conditions: Homo sapiens, 72 hours
Experimental: (§3) Cell viability of MDA-MB-231 breast cancer cells was evaluated by using the MTT assay in triple replicates in one experiment and repeated for three times (FIG. 3). […] The cells were incubated at 37° C. for a period of 24 hours. Escalating concentrations of IL-6/gp130 inhibitors (e.g., compounds of Formula (A), (B), (C), (D), (E), or (F) including LLM-418, bazedoxifene, LS-28-3, and COMP-D (LS-101-D)) were added in triplicate to the plates in the presence of 10% FBS. After incubation for 72 hours (unless otherwise noted), a stock solution of MTT (0.5 mg/ml) was then added to each well containing the treated cells, followed by incubation at 37° C. for 3 h. After removal of medium, the MTT dye was dissolved with spectrophotometric grade DMSO and the absorbance was read at 570 nm. The IC50 value is determined by interpolation based on the absorbance value halfway between positive and negative controls.

[2] = tested on: SUM159 gp130ko breast cancer cells; experiment: MTT cell viability assay, SUM159 gp130ko; type: cell-based; conditions: SUM159, Table 1 batch studies, 72 hours, read-out: IC50 Values in Breast Cancer Cell Lines, SUM159 gp130ko
Experimental: as §3

IL-6 induced p-STAT3 = experiment: Selectivity study, western blot, T47D cells, IL-6 stimulation; type: cell-based; conditions: T47D breast cancer cells, compound 2 hours, then cytokine 30 minutes
Experimental: as §1, §2

[3] = tested on: MDA-MB-231 breast cancer cells; experiment: MTT cell viability assay, MDA-MB-231; type: cell-based; conditions: MTT; for pIC50: Homo sapiens, MDA-MB-231, 72 hours, Inactive = no measurable activity at 20 μM
Experimental: as §3

[4] = tested on: SUM159 breast cancer cells; experiment: MTT cell viability assay, SUM159; type: cell-based; conditions: 72 hours, Inactive = no measurable activity at 20 μM
Experimental: Cell viability of MDA-MB-231 breast cancer cells was evaluated by using the MTT assay in triple replicates in one experiment and repeated for three times (FIG. 3). MDA-MB-231 SUM159, SUM159 […], MDA-MB-231 breast cancer cells or SUM149 or HCC1937 BRCA mutant breast cancer cells were seeded in 96-well plates at a density of 3,000 cells per well. The cells were incubated at 37° C. for a period of 24 hours. Escalating concentrations of IL-6/gp130 inhibitors (e.g., compounds of Formula (A), (B), (C), (D), (E), or (F) including LLM-418, bazedoxifene, LS-28-3, and COMP-D (LS-101-D)) were added in triplicate to the plates in the presence of 10% FBS. After incubation for 72 hours (unless otherwise noted), a stock solution of MTT (0.5 mg/ml) was then added to each well containing the treated cells, followed by incubation at 37° C. for 3 h. After removal of medium, the MTT dye was dissolved with spectrophotometric grade DMSO and the absorbance was read at 570 nm. The IC50 value is determined by interpolation based on the absorbance value halfway between positive and negative controls.

pSTAT3 in T47D cell line = experiment: pSTAT3 inhibition in T47D cell line (FIG. 8); type: cell-based; conditions: compound, then cytokine
Experimental: (§4) FIG. 8 depicts TNBC, BRCA-mutant, and T47D cells stimulated with LLM418-MCBU, then cytokine.
as §1

pSTAT3 in TNBC cell line = experiment: pSTAT3 inhibition in TNBC cell line (FIG. 8); type: cell-based; conditions: compound, then cytokine
Experimental: as §4, §1

[5] = tested on: HCC1937 BRCA-mutant TNBC cells; experiment: Cell viability, combination with PARP inhibitor talazoparib (FIG. 9); type: cell-based; conditions: LLM418-MCBU in combination with PARP inhibitor talazoparib
Text: FIG. 9 depicts cell viability of HCC1937 BRCA-mutant TNBC cells treated with LLM418-MCBU and PARP inhibitor talazoparib.

[6] = tested on: pSTAT3 in BRCA-mutant cell line; experiment: pSTAT3 inhibition in BRCA-mutant cell line (FIG. 8); type: cell-based; conditions: compound, then cytokine
Experimental: as §4, §1

LIF induced p-STAT3 = experiment: Selectivity study, western blot, T47D cells, LIF stimulation; type: cell-based; conditions: T47D breast cancer cells, compound, then cytokine
Experimental: as §1, §2

gp130 [7] = target: T1, gp130 (Homo sapiens, UniProt P40189); experiment: DARTS assay in MIAPaCa2 pancreatic cancer cell lysates; type: binding; conditions: 1:2000 pronase:protein, proteolysis 20 minutes; FIG. 2
T1 construct: endogenous in cells; host or cells: MDA-MB-231 breast cancer cells (RIPA lysate)
T1 sequence (P40189 23-918): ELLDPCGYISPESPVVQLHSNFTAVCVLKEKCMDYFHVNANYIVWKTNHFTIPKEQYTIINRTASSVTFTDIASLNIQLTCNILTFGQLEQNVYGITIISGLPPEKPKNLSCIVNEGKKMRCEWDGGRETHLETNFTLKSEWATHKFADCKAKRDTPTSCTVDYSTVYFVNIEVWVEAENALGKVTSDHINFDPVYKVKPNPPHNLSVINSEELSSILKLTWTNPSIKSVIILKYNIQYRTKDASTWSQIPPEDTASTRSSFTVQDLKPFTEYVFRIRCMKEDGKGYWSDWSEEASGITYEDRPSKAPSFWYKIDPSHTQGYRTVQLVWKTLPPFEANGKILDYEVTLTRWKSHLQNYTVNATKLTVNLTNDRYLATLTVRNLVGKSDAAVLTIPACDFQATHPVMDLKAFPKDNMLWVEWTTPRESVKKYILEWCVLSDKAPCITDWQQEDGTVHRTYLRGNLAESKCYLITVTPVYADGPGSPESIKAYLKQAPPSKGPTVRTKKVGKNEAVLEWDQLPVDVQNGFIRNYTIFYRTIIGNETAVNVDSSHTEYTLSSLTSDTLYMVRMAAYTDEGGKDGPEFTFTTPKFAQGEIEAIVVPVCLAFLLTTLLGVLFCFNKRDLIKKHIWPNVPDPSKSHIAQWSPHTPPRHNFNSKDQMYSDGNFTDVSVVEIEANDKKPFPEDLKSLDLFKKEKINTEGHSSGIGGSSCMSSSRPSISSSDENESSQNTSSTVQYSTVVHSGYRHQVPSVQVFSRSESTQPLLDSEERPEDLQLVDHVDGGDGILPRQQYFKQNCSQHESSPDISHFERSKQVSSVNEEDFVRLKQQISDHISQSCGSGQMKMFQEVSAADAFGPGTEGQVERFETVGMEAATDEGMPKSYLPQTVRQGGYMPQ
Experimental: as §1
(§5) MDA-MB-231 breast cancer cells or MIAPaCa2 pancreatic cancer cells were lysed in cold radioimmunoprecipitation assay (RIPA) lysis buffer containing proteasome inhibitor cocktail and phosphatase inhibitor cocktail. Then lysates were incubated with escalating concentrations (10-1000 μM) of LS-28-3 or bazedoxifene at room temperature for 1 h. Proteolysis was followed by adding protease pronase solution at a ratio of 1 mg of pronase to 1000 mg (or 2000 mg) of lysate protein for 20 min at room temperature. […] The resulted protein samples were separated by 8% SDS-PAGE gel and analyzed by western blotting. […]

gp130 [8] = target: T1, gp130; experiment: DARTS assay in MDA-MB-231 breast cancer cell lysates; type: binding; conditions: 1:2000 pronase:protein, proteolysis 20 minutes; FIG. 1
Experimental: as §1, §5

[9] = MDA-MB-231, Table 1 batch studies, read-out: IC50 Values in Breast Cancer Cell Lines, MDA-MB-231 Bone Metastatic
[10] = MDA-MB-231, Table 3 batch studies (independent from Table 1), read-out: MDA-MB-231 Bone Metastatic IC50
[11] = Table 1 batch studies, read-out: IC50 Values in Breast Cancer Cell Lines, MDA-MB-231
[12] = Table 3 batch studies (independent from Table 1), read-out: MDA-MB-231 IC50
[13] = SUM159, Table 1 batch studies, read-out: IC50 Values in Breast Cancer Cell Lines, SUM159
[14] = SUM159, Table 3 batch studies (independent from Table 1), read-out: SUM159 IC50

Row | pIC50 [1, 9] | pIC50 [1, 10] | pIC50 [2] | pIC50 [3, 11] | pIC50 [3, 12] | pIC50 [4, 13] | pIC50 [4, 14] | SMILES | Inhibition of IFN-7 induced p-STAT1 (induced p-STAT1) | Inhibition of IL-6 induced p-STAT3 (IL-6 induced p-STAT3) | other results
1 | 4.77 | 4.77 | 4.74 | 4.76 | 4.76 | 4.87 | 4.76 | CCn1ccc(-c2ccccc2NC(=O)c2ccc(OCCN3CCCCC3)cc2)n1 [LLM418-Et, N-(2-(1-ethyl-1H-pyrazol-3-yl)phenyl)-4-(2-(piperidin-1-yl)ethoxy)benzamide] | inhibit both IL-6 induced p-STAT3 and IFN-7 induced p-STAT1 | inhibit both IL-6 induced p-STAT3 and IFN-7 induced p-STAT1 | –
2 | 5.14 | 5.14 | 4.86 | 4.73 | 4.73 | 4.98 | 4.98 | O=C(Nc1ccccc1-c1ccn(CC2CCC2)n1)c1ccc(OCCN2CCCCC2)cc1 [LLM418-MCBu, N-(2-(1-(cyclobutylmethyl)-1H-pyrazol-3-yl)phenyl)-4-(2-(piperidin-1-yl)ethoxy)benzamide] | – | inhibited IL-6 selectively in a dose-dependent manner | Inhibition of pSTAT3, T47D cell line (pSTAT3 in T47D cell line): inhibits pSTAT3; Inhibition of pSTAT3, TNBC cell line (pSTAT3 in TNBC cell line): inhibits pSTAT3; CI (synergy in inhibiting cell viability) [5]: < 1.0; Inhibition of pSTAT3, BRCA-mutant cell line [6]: inhibits pSTAT3; Inhibition of IL-6 induced p-STAT3 (IL-6 induced p-STAT3; listed as LLM418-MCBU): selectively inhibits IL-6 induced p-STAT3
3 | 4.93 | 4.68 | 4.79 | 4.30 | 4.52 | 5.23 | 4.82 | O=C(Nc1ccccc1-c1ccn(C2CCC2)n1)c1ccc(OCCN2CCCCC2)cc1 [LLM418-CBU, N-(2-(1-cyclobutyl-1H-pyrazol-3-yl)phenyl)-4-(2-(piperidin-1-yl)ethoxy)benzamide] | also inhibits IFN-7 induced p-STAT1 | inhibits IL-6 induced p-STAT3 | Inhibition of LIF induced p-STAT3 (LIF induced p-STAT3): also inhibits
4 | – | – | – | – | – | – | – | CC(C)[C@H]1COC(=O)N1c1ccc(C(=O)Nc2cccc(-c3cc[nH]n3)c2)cc1 [LS-28-3, (S)—N-(3-(1H-pyrazol-3-yl)phenyl)-4-(4-isopropyl-2-oxooxazolidin-3-yl)benzamide] | – | – | Binding to gp130 (protection from pronase proteolysis), MIAPaCA2 lysates (gp130 [7]): showed direct binding to gp130; Binding to gp130 (protection from pronase proteolysis), MDA-MB-231 lysates (gp130 [8]): showed direct binding to gp130; Percent cells remaining after treatment with 10 μM compound, MDA-MB-231 ([3]; Table 1 batch studies): 88%***; Percent cells remaining after treatment with 10 μM compound, MDA-MB-231 ([3]; Table 3 batch studies): 88%***; IC50 Values in Breast Cancer Cell Lines, SUM159 ([4]; Table 1 batch studies): Inactive; SUM159 IC50 ([4]; Table 3 batch studies (independent from Table 1)): Inactive
